Measured values: patent US10800741B2 (ANCUREALL PHARMACEUTICAL (SHANGHAI) CO., LTD., priority 2017, dated 2020)
Read-outs that look alike come from different tables or passages of the source.

How the values were obtained:
Assay in all cases: KINOMEscan in vitro binding to 468 labeled protein kinases
protein kinases [1] = molecular target: T1, protein kinases (Homo sapiens, UniProt P04629); conditions: TRKA (NTRK1), read-out: Test compound/solvent control (%)
T1 construct: purchased Discovery X company (USA), KINOMEscan screening platform
T1 sequence (P04629 33-796): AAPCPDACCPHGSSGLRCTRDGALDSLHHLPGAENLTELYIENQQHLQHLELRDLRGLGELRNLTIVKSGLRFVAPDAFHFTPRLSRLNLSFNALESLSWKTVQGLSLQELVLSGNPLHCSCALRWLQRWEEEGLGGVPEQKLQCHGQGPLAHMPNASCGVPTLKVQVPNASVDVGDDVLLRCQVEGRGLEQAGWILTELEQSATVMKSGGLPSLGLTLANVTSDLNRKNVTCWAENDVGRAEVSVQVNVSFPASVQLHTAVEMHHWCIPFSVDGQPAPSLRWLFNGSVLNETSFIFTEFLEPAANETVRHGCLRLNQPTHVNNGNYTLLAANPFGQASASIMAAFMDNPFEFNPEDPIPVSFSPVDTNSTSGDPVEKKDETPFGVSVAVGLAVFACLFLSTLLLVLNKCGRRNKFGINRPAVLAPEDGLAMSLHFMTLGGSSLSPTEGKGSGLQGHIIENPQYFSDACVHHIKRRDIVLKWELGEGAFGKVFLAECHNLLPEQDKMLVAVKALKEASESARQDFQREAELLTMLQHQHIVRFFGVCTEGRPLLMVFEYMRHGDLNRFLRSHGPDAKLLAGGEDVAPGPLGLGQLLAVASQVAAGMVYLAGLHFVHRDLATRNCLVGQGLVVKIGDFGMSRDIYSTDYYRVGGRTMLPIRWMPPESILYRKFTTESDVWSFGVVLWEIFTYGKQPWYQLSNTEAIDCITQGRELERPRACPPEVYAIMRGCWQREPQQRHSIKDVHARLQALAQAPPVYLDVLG
How it was run: (§1)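 Duplicate in vitro binding reactions at 1 nM, 10 nM and 1000 nM compound against a panel of 468 labelled protein kinases (KINOMEscan). Binding expressed relative to solvent control as a percentage, stronger affinity giving a lower value.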

protein kinases [2] = molecular target: T2, protein kinases (Homo sapiens, UniProt P08922); conditions: ROS1, read-out: Test compound/solvent control (%)
T2 construct: purchased Discovery X company (USA), KINOMEscan screening platform
T2 sequence (P08922 28-2347): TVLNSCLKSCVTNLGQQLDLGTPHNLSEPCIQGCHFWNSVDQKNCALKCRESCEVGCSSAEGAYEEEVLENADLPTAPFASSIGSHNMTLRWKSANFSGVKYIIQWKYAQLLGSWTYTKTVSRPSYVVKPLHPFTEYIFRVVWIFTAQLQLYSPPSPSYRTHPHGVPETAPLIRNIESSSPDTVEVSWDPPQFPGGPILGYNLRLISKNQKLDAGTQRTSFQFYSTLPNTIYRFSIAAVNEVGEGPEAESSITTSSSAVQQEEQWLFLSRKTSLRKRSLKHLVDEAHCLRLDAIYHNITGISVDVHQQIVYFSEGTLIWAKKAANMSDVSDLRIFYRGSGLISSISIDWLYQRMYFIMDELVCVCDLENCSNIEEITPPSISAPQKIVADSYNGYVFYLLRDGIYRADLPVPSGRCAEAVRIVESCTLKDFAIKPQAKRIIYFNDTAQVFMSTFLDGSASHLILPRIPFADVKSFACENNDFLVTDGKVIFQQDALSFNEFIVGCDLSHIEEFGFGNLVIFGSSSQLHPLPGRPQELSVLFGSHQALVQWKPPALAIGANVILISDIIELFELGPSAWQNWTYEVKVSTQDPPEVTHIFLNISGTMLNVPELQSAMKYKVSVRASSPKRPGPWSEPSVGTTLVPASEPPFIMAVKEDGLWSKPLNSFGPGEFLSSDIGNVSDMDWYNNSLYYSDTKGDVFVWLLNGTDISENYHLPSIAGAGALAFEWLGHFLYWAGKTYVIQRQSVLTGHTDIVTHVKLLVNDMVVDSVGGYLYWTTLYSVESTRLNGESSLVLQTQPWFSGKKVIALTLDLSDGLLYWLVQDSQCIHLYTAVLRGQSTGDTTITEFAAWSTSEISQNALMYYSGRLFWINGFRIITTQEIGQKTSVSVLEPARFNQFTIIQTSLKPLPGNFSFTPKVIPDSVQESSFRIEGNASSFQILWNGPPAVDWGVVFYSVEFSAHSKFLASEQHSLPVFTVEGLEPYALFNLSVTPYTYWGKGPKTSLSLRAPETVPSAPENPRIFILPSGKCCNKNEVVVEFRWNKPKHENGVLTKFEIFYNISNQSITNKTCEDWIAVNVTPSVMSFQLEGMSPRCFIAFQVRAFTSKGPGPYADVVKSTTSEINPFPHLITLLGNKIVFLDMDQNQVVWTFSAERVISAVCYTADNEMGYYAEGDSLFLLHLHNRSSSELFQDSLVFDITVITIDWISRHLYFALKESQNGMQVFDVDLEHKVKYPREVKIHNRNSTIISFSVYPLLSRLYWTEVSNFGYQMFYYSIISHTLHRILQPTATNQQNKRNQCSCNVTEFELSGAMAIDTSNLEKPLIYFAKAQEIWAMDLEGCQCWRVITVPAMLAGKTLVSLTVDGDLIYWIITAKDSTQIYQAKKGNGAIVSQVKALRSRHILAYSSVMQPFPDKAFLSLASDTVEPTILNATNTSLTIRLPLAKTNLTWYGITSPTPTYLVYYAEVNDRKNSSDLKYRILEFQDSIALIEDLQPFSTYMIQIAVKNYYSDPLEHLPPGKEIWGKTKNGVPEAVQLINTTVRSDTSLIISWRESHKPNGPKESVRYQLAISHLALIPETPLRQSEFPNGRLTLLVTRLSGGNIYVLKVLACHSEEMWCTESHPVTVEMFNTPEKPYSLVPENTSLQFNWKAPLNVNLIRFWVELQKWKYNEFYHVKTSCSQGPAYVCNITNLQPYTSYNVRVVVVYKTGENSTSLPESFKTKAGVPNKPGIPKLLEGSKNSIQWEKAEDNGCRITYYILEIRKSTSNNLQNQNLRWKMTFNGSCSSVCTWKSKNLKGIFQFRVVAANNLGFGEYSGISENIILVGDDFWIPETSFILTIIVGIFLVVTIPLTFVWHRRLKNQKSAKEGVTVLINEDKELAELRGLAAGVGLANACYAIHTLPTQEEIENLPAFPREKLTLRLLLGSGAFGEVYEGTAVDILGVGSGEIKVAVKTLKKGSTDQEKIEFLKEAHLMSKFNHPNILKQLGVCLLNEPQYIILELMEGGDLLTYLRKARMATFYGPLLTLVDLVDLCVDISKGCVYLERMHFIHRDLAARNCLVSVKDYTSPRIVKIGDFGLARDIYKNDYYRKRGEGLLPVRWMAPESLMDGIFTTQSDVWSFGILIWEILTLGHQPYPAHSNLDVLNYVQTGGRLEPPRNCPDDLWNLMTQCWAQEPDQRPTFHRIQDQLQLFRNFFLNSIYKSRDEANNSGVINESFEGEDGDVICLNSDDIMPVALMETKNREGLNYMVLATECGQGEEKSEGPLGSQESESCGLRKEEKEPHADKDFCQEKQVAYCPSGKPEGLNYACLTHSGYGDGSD
How it was run: as §1

protein kinases [3] = molecular target: T3, protein kinases (Homo sapiens, UniProt P30530); conditions: AXL, read-out: Test compound/solvent control (%)
T3 construct: purchased Discovery X company (USA), KINOMEscan screening platform
T3 sequence (P30530 26-894): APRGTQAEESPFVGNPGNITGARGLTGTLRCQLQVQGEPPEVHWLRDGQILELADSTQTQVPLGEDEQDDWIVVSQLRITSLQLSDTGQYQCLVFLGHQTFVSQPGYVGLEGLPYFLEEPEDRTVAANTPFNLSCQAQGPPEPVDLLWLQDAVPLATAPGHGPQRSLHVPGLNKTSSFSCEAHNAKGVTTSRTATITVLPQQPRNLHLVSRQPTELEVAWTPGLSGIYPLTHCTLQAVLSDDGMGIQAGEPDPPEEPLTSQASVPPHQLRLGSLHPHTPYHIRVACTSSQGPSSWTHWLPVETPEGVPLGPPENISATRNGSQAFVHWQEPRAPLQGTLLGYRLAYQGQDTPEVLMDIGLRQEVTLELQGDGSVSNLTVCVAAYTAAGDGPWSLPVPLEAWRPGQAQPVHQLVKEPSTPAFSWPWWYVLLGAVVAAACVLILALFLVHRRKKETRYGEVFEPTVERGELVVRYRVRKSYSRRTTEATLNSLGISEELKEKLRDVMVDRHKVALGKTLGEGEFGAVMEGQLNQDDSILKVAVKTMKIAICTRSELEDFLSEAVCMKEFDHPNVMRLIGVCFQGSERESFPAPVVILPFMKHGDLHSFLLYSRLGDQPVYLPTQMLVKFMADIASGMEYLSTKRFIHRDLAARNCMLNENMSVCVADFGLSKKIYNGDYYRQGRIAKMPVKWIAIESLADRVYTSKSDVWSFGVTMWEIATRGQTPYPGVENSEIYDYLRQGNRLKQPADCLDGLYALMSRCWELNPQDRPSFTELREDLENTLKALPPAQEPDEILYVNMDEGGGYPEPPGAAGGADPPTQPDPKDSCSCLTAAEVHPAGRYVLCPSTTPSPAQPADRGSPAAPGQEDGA
How it was run: as §1

protein kinases [4] = molecular target: T4, protein kinases (Homo sapiens, UniProt P00519, F317L); conditions: read-out: Test compound/solvent control (%); for remaining binding at 0.001 µM: 1 nM; for remaining binding at 0.01 µM: 10 nM; for remaining binding at 1 µM: 1000 nM
T4 construct: purchased Discovery X company (USA), KINOMEscan screening platform
T4 sequence (P00519 whole entry F317L): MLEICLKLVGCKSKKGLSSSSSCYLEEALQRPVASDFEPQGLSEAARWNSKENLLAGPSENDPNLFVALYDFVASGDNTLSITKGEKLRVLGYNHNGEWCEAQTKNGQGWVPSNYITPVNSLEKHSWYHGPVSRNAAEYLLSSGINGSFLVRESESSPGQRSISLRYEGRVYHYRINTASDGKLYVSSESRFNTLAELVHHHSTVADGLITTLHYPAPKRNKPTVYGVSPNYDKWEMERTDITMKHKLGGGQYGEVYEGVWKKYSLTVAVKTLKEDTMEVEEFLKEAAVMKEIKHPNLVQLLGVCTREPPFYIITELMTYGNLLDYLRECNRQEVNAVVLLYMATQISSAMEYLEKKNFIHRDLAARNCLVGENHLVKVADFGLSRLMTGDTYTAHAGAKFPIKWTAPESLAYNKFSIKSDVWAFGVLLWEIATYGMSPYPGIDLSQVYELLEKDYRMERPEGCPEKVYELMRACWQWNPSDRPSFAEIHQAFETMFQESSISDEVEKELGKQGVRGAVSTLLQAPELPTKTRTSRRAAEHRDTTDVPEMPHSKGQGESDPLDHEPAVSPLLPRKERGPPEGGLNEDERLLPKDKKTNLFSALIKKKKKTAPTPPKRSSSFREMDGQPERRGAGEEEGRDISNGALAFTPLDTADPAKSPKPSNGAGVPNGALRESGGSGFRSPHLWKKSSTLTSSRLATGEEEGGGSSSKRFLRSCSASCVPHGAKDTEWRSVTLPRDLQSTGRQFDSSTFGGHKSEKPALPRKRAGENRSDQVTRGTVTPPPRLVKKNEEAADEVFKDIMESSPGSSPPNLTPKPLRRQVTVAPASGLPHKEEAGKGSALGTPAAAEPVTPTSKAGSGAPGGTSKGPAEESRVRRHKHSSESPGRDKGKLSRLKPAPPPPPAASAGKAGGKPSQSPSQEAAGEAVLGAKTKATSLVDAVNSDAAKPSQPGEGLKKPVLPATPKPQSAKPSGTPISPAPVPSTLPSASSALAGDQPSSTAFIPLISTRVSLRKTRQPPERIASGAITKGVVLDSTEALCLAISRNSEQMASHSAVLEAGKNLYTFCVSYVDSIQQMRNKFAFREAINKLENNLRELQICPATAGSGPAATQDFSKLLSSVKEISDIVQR
How it was run: as §1

protein kinases [5] = molecular target: T5, protein kinases (Homo sapiens, UniProt P06239); conditions: LCK, read-out: Test compound/solvent control (%)
T5 construct: purchased Discovery X company (USA), KINOMEscan screening platform
T5 sequence (P06239 whole entry): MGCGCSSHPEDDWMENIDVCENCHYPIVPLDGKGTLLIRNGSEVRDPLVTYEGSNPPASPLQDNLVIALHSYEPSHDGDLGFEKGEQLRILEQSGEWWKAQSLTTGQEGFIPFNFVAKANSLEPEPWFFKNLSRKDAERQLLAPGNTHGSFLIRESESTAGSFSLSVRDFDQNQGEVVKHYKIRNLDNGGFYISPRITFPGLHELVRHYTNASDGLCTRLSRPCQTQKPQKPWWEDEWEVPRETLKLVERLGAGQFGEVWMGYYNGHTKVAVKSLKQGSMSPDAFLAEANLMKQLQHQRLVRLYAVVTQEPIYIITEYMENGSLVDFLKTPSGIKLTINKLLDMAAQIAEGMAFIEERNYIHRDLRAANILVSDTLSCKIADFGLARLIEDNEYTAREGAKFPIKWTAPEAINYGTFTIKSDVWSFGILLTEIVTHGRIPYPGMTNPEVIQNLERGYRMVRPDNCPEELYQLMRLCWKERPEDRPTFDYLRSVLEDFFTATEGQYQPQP
How it was run: as §1

protein kinases [6] = molecular target: T6, protein kinases (Homo sapiens, UniProt P00533, L858R); conditions: EGFR(L858R)
T6 construct: purchased Discovery X company (USA), KINOMEscan screening platform
How it was run: as §1

protein kinases [7] = molecular target: T7, protein kinases (Homo sapiens, UniProt P36888, D835H); conditions: FLT3(D835H), read-out: Test compound/solvent control (%)
T7 construct: purchased Discovery X company (USA), KINOMEscan screening platform
T7 sequence (P36888 27-993 D835H): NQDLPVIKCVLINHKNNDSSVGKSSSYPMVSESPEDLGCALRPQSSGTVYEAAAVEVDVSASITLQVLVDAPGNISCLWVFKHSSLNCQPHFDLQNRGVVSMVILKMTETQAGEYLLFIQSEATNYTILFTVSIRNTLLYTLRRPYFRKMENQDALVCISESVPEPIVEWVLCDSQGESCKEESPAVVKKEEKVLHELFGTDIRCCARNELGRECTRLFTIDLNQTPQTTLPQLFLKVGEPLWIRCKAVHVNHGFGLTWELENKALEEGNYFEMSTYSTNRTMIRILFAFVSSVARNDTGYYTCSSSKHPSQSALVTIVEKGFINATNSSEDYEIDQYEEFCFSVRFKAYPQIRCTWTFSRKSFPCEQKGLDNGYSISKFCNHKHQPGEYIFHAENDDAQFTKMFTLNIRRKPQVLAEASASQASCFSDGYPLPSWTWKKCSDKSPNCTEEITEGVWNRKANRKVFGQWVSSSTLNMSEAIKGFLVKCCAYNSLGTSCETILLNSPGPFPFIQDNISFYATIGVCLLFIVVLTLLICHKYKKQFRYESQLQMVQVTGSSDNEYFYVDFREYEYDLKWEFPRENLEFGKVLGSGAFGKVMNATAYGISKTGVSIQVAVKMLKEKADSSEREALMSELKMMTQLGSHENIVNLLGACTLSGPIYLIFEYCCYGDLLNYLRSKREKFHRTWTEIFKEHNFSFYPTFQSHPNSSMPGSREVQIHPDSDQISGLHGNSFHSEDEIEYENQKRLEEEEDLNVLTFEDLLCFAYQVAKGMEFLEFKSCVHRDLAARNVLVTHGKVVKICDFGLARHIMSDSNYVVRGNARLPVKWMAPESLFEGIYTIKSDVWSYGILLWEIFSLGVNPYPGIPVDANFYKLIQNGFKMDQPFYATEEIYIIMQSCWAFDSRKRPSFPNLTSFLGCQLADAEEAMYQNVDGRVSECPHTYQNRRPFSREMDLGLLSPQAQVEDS
How it was run: as §1

protein kinases [8] = molecular target: T8, protein kinases (Homo sapiens, UniProt Q16288); conditions: TRKC (NTRK3), read-out: Test compound/solvent control (%)
T8 construct: purchased Discovery X company (USA), KINOMEscan screening platform
How it was run: as §1

- remaining binding at 0.001 µM (protein kinases [1]; 1 nM): 48%
- remaining binding at 0.01 µM (protein kinases [1]; 10 nM): 5.5%
- remaining binding at 1 µM (protein kinases [1]; 1000 nM): 0.2%
- remaining binding at 0.001 µM (protein kinases [2]; 1 nM): 85%
- remaining binding at 0.01 µM (protein kinases [2]; 10 nM): 17%
- remaining binding at 1 µM (protein kinases [2]; 1000 nM): 4.6%
- remaining binding at 0.001 µM (protein kinases [3]; 1 nM): 53%
- remaining binding at 0.01 µM (protein kinases [3]; 10 nM): 7.2%
- remaining binding at 1 µM (protein kinases [3]; 1000 nM): 4.1%
- remaining binding at 0.001 µM (protein kinases [4]; ABL1(F317L)-phosphorylated): 55%
- remaining binding at 0.01 µM (protein kinases [4]; ABL1(F317L)-phosphorylated): 3.7%
- remaining binding at 1 µM (protein kinases [4]; ABL1(F317L)-phosphorylated): 1.1%
- remaining binding at 0.001 µM (protein kinases [4]; ABL1(F317L)-unphosphorylated): 49%
- remaining binding at 0.01 µM (protein kinases [4]; ABL1(F317L)-unphosphorylated): 6.8%
- remaining binding at 1 µM (protein kinases [4]; ABL1(F317L)-unphosphorylated): 0.25%
- remaining binding at 0.001 µM (protein kinases [5]; 1 nM): 33%
- remaining binding at 0.01 µM (protein kinases [5]; 10 nM): 0.65%
- remaining binding at 1 µM (protein kinases [5]; 1000 nM): 0.2%
- Test compound/solvent control (%) (protein kinases [6]; 1 nM): 87%
- Test compound/solvent control (%) (protein kinases [6]; 10 nM): 28%
- Test compound/solvent control (%) (protein kinases [6]; 1000 nM): 0%
- remaining binding at 0.001 µM (protein kinases [7]; 1 nM): 79%
- remaining binding at 0.01 µM (protein kinases [7]; 10 nM): 15%
- remaining binding at 1 µM (protein kinases [7]; 1000 nM): 1.1%
- remaining binding at 0.001 µM (protein kinases [8]; 1 nM): 84%
- remaining binding at 0.01 µM (protein kinases [8]; 10 nM): 28%
- remaining binding at 1 µM (protein kinases [8]; 1000 nM): 0.2%
SMILES: COCCOc1cc2nccc(Oc3ccc(NC(=O)Nc4cc(C(C)(C)C)n[nH]4)c(Cl)c3)c2cc1NC(C)=O [Compound 66, N-[4-{4-[3-(5-tert-butyl-2H-pyrazol-3-yl)-ureido]-3-chloro-phenoxy}-7-(2-methoxy-ethoxy)-quinolin-6-yl]-acetamide]
